Test results: patent publication US20240376097A1, “BCL-2 Inhibitor” (BeiGene Ltd., priority 2020, published 2024)

Legend:
[1] = target: Recombinant human Bcl-2 protein (Homo sapiens (Human), UniProt P10415); experiment: Bcl-2 TR-FRET Assay; type: binding; conditions: Bcl-2 wild type, TR-FRET; read-out: Biochemical assay (IC50, nM) Bcl-2 WT
How it was run: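 0.05 nM recombinant Bcl-2 preincubated 0.5 h at room temperature with 10-point compound dilutions (top final 1, 0.1, 0.02 or 0.01 uM) in pH 7.5 phosphate buffer. FITC-Bak peptide (0.5 nM) and anti-6His Tb cryptate then added for 1 h. TR-FRET read; IC50 from four-parameter logistic fit.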

[2] = tested on: BCL-2 G101V knock-in cell line H96 (derive from RS4;11); experiment: Bcl 2-G101V Knock-In RS4;11 Cell Proliferation Assay; type: cell-based; conditions: Homo sapiens, RS4;11 Bcl-2 G101V knock-in clone H96, 48 hrs, CellTiter-GLO, read-out: Cellular proliferation assay (IC50, nM) RS4
Method: Biological Example: Bcl 2-G101V Knock-In RS4;11 Cell Proliferation Assay
(1) RS4;11 H96 Bcl 2-G101V Knock-In Cell Line Generation
Briefly, RS4;11 BCL2-G101V knock-in cell pool was generated using Crisper/Cas9 gene editing system and the BCL2-G101V knock-in single clone H96 was picked from the knock-in cell pool and validated by WES (whole exome-sequencing) and RNA-seq.
The BCL-2 dependent acute lymphoblastic leukemia (ALL) cell line, RS4;11(ATCC, CRL-1873), was cultured in RPMI-1640 complete medium (RPMI-1640 medium, HEPES (Gibco, 22400-105) supplemented with 10% fetal bovine serum (FBS) (Gibco, 10099-1441), 100 unit/ml penicillin and 100 μg/ml streptomycin (Gibco, 15140122)) and maintained in a humidified chamber at 37° C. containing 5% CO2.
To obtain BCL2-G101V knock-in cell pool, RS4;11 was co-transfected with the Cas9-gRNA which also expressed GFP label, and the Donor gene which contained the BCL2-G101V mutant sequence. After 48 hrs of electroporation, the GFP positive cells were collected through FACSAriaIII cell sorting system. Cell pool was recovered for 3 days and then cultured under 2 nM ABT-199 stress for 4 weeks. […] Then cells were plated in 96 well U-plate with 1 cell/well for 10000 wells for single clone selection. After 3-5 weeks growing, clones were successively screened by PCR sequencing. And three BCL2-G101V knock-in clones: H96, H142 and H233, have been picked out.
Three clones were validated by genome DNA and cDNA(mRNA) PCR sequencing, and BCL-2, BCL-xL and MCL-1 expression using Western Blot. The H96 clone was also validated by WES (whole exome-sequencing) and RNA-seq.
(2) Bcl 2-G101V Knock-In RS4;11 Cell Proliferation Assay
The BCL-2 G101V knock-in cell line H96 (derive from RS4;11) were used to study the cellular potency of BCL-2 inhibitors. The cells were cultured in RPMI-1640 complete medium (RPMI-1640 medium, HEPES (Gibco, 22400-105) supplemented with 10% fetal bovine serum (FBS) (Gibco, 10099-1441), 100 unit/ml penicillin and 100 μg/ml streptomycin (Gibco, 15140122)) and maintained in a humidified chamber at 37° C. containing 5% CO2. Each compound was serially diluted with 1 μM or 10 μM as the maximum concentration. To test the apoptotic effect of the compounds, the cells were seeded at 50,000 in 90 μl per well in 96-well plates and treated with 10-point dilution series of each compound for 48 hrs at 37° C. Cell viability was assessed after the treatment using CellTiter-GLO luminescent assay (Promega) according to the manufacturer's recommendations. Briefly, 30 μl of CellTiter-GLO reagent was added into 100 μl of cell culture. Mixture was agitated on an orbital shaker for 5 min to ensure cell lysis followed by 7 min incubation at room temperature to allow development and stabilization of luminescent signals, which corresponded to the quantity of ATP and thus the quantity of metabolically active cells. Luminescent signals were measured using PHERAstar FS reader (BMG). Mean IC50 values were determined with GraphPad Prism software.

[3] = tested on: RS4;11 (BCL-2 dependent acute lymphoblastic leukemia cell line); experiment: RS4;11 Cell Proliferation Assay; type: cell-based; conditions: Homo sapiens, RS4-11, RS4;11 cells, read-out: Cellular proliferation assay (IC50, nM) RS4
Method: Biological Example: RS4;11 Cell Proliferation Assay
The BCL-2 dependent acute lymphoblastic leukemia (ALL) cell line, RS4;11, was used to study the cellular potency of BCL-2 inhibitors. The cells (ATCC, CRL-1873) were cultured in RPMI-1640 complete medium (RPMI-1640 medium, HEPES (Gibco, 22400-105) supplemented with 10% fetal bovine serum (FBS) (Gibco, 10099-1441), 100 unit/ml penicillin and 100 μg/ml streptomycin (Gibco, 15140122)) and maintained in a humidified chamber at 37° C. containing 5% CO2. Each compound was serially diluted with 1 μM as the maximum concentration. To test the apoptotic effect of the compounds, the cells were seeded at 50,000 in 180 μl per well in 96-well plates and treated with 10-point dilution series of each compound for 48 hrs at 37° C. Cell viability was assessed after the treatment using CellTiter-GLO luminescent assay (Promega) according to the manufacturer's recommendations. Briefly, 30 μl of CellTiter-GLO reagent was added into 200 μl of cell culture. Mixture was agitated on an orbital shaker for 5 min to ensure cell lysis followed by 7 min incubation at room temperature to allow development and stabilization of luminescent signals, which corresponded to the quantity of ATP and thus the quantity of metabolically active cells. Luminescent signals were measured using PHERAstar FS reader (BMG). Mean IC50 values were determined with GraphPad Prism software.

[4] = tested on: recombinant human Bcl-2-G101V protein; experiment: Bcl-2-G101V TR-FRET Assay; type: binding; conditions: ratio of biochemical IC50 Bcl-2 G101V / Bcl-2 WT
How it was run: (§1)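 IC50 values derive from four-parameter logistic fitting of percent inhibition data. That inhibition of ligand binding to Bcl-2-G101V is computed from the 490 nm/520 nm TR-FRET ratio under 337 nm excitation, over a rising compound concentration series.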

[5] = target: recombinant human Bcl-2-G101V protein (Homo sapiens (Human), UniProt P10415, G101V); experiment: Bcl-2-G101V TR-FRET Assay; type: binding; conditions: Bcl-2 G101V mutant, TR-FRET; read-out: Biochemical assay (IC50, nM) Bcl-2 G101V
How it was run: as §1

Compound | IC50 [1] | IC50 [2] | IC50 [3] | Ratio of Bcl-2 G101V/WT [4] | IC50 [5]
COc1cc(CN2CCN(C3CC4(C3)CN(c3ccc(C(=O)NS(=O)(=O)c5ccc(NC[C@H]6CC[C@](C)(O)CC6)c([N+](=O)[O-])c5)c(Oc5cnc6[nH]cc(F)c6c5)c3)C4)[C@H](c3ccccc3C(C)C)C2)ccc1C1CCC1 [Example 341, 4-(6-((R)-4-(4-cyclobutyl-3-methoxybenzyl)-2-(2-isopropylphenyl)piperazin-1-yl)-2-azaspiro[3.3]heptan-2-yl)-2-((3-fluoro-1H-pyrrolo[2,3-b]pyridin-5-yl)oxy)-N-((4-((((1r,4r)-4-hydroxy-4-methylcyclohexyl)methyl)amino)-3-nitrophenyl)sulfonyl)benzamide] | 1.6 nM | 0.68 nM | 0.12 nM | 2.8 | 4.5 nM
COc1cc(CN2CCN(C3CC4(C3)CN(c3ccc(C(=O)NS(=O)(=O)c5ccc(NC[C@H]6CC[C@](C)(O)CC6)c([N+](=O)[O-])c5)c(Oc5cnc6[nH]cc(F)c6c5)c3)C4)[C@H](c3ccccc3C(C)C)C2)cc2occc12 [Example 332, 2-((3-fluoro-1H-pyrrolo[2,3-b]pyridin-5-yl)oxy)-N-((4-((((1r,4r)-4-hydroxy-4-methylcyclohexyl)methyl)amino)-3-nitrophenyl)sulfonyl)-4-(6-((R)-2-(2-isopropylphenyl)-4-((4-methoxybenzofuran-6-yl)methyl)piperazin-1-yl)-2-azaspiro[3.3]heptan-2-yl)benzamide] | 0.7 nM | 0.54 nM | 0.17 nM | 1.6 | 1.1 nM
CC(C)c1ccccc1C1CN(Cc2ccc(OC3CC3)cc2)CCN1C1CC2(CCN(c3ccc(C(=O)NS(=O)(=O)c4ccc(NC[C@H]5CC[C@](C)(O)CC5)c([N+](=O)[O-])c4)c(Oc4cnc5[nH]ccc5c4)c3)CC2)C1 (stereo partly shown) [Example 172, 2-((1H-pyrrolo[2,3-b]pyridin-5-yl)oxy)-4-(2-(4-(4-cyclopropoxybenzyl)-2-(2-isopropylphenyl)piperazin-1-yl)-7-azaspiro[3.5]nonan-7-yl)-N-((4-((((1r,4r)-4-hydroxy-4-methylcyclohexyl)methyl)amino)-3-nitrophenyl)sulfonyl)benzamide] | 0.35 nM | 1.64 nM | 0.43 nM | 5.5 | 1.9 nM
COc1cc(CN2CCN(C3CC4(C3)CN(c3ccc(C(=O)NS(=O)(=O)c5ccc(NC[C@H]6CC[C@](C)(O)CC6)c([N+](=O)[O-])c5)c(Oc5cnc6[nH]ccc6c5)c3)C4)[C@H](c3ccccc3C(C)C)C2)cc2c1OC(C)(C)C=C2 [Example 329, 2-((1H-pyrrolo[2,3-b]pyridin-5-yl)oxy)-N-((4-((((1r,4r)-4-hydroxy-4-methylcyclohexyl)methyl)amino)-3-nitrophenyl)sulfonyl)-4-(6-((R)-2-(2-isopropylphenyl)-4-((8-methoxy-2,2-dimethyl-2H-chromen-6-yl)methyl)piperazin-1-yl)-2-azaspiro[3.3]heptan-2-yl) benzamide] | 0.15 nM | 1.3 nM | 0.25 nM | 3.1 | 0.47 nM
CC(C)c1ccccc1[C@@H]1CN(Cc2cccc3c2OCCO3)CCN1C1CC2(C1)CN(c1ccc(C(=O)NS(=O)(=O)c3ccc(NC[C@H]4CC[C@](C)(O)CC4)c([N+](=O)[O-])c3)c(Oc3cnc4[nH]ccc4c3)c1)C2 [Example 149a, 2-((1H-pyrrolo[2,3-b]pyridin-5-yl)oxy)-4-(6-((R)-4-((2,3-dihydrobenzo[b][1,4]dioxin-5-yl)methyl)-2-(2-isopropylphenyl)piperazin-1-yl)-2-azaspiro[3.3]heptan-2-yl)-N-((4-((((1r,4r)-4-hydroxy-4-methylcyclohexyl)methyl)amino)-3-nitrophenyl)sulfonyl)benzamide] | 0.11 nM | 0.67 nM | 0.17 nM | 2.6 | 0.27 nM
CC(C)c1ccccc1C1CN(C(=O)c2ccccc2)CCN1C1CC2(CCN(c3ccc(C(=O)NS(=O)(=O)c4ccc(NC[C@H]5CC[C@](C)(O)CC5)c([N+](=O)[O-])c4)c(Oc4cnc5[nH]ccc5c4)c3)CC2)C1 (stereo partly shown) [Example 60] | 0.057 nM | 2.52 nM | 0.35 nM | 28.1 | 1.6 nM
COc1cc(CN2CCN(C3CC4(C3)CN(c3ccc(C(=O)NS(=O)(=O)c5ccc(NC[C@H]6CC[C@](C)(O)CC6)c([N+](=O)[O-])c5)c(Oc5cnc6[nH]ccc6c5)c3)C4)[C@H](c3ccccc3C(C)C)C2)cc2occc12 [Example 331, 2-((1H-pyrrolo[2,3-b]pyridin-5-yl)oxy)-N-((4-((((1r,4r)-4-hydroxy-4-methylcyclohexyl)methyl)amino)-3-nitrophenyl)sulfonyl)-4-(6-((R)-2-(2-isopropylphenyl)-4-((4-methoxybenzofuran-6-yl)methyl)piperazin-1-yl)-2-azaspiro[3.3]heptan-2-yl)benzamide] | 0.29 nM | 0.69 nM | 0.16 nM | 2.1 | 0.62 nM
C#Cc1ccc(CN2CCN(C3CC4(CCN(c5ccc(C(=O)NS(=O)(=O)c6ccc(NC[C@H]7CC[C@](C)(O)CC7)c([N+](=O)[O-])c6)c(Oc6cnc7[nH]ccc7c6)c5)CC4)C3)C(c3ccccc3C(C)C)C2)cc1 (stereo partly shown) [Example 142, 2-((1H-pyrrolo[2,3-b]pyridin-5-yl)oxy)-4-(2-(4-(4-ethynylbenzyl)-2-(2-isopropylphenyl)piperazin-1-yl)-7-azaspiro[3.5]nonan-7-yl)-N-((4-((((1r,4r)-4-hydroxy-4-methylcyclohexyl)methyl)amino)-3-nitrophenyl)sulfonyl)benzamide] | 0.56 nM | 6.22 nM | 0.795 nM | 5.3 | 3 nM
